# Assays:
# [1] = Pharmacokinetic evaluation in mice by gavage; assay type: in vivo; design: AUClast /D: unit not given here; conditions: CD1 male mice, oral, 30 mg/kg, 25 mM citrate buffer (pH 3) containing 5% Tween 80
# Experimental: CD1 male mice were selected and the test compound was administered orally. The drug concentration in plasma at different time points was quantitatively determined by LC/MS/MS to evaluate the pharmacokinetic characteristics of the test drug in mice.
# Experimental materials: CD1 Mouse (male, 20-30 g, 6-8 weeks old, Zhejiang Weitong Lihua).
# Blood was collected from the dorsal plantar vein at 0.25 h, 0.5 h, 1 h, 2 h, 4 h, 6 h, 8 h and 24 h after administration, placed in an anticoagulant tube containing EDTA-K2 and mixed, and centrifuged at 4°C and 4000 g for 5 minutes. The drug concentration in blood was determined by LC-MS/MS, and the relevant pharmacokinetic parameters were calculated by the non-compartmental linear/log trapezoidal method using Phoenix WinNonlin 6.3 pharmacokinetic software.
# [2] = Simulated tableting experiment (XRPD after pressing); assay type: physicochemical
# Experimental: About 10 mg of crystalline form G was weighed and pressed at 2 MPa, 5 MPa or 10 MPa for 5 min. The crystal transformation and the change of crystallinity were investigated by XRPD characterization.
# [3] = Stability test of crystalline forms (open container at 25°C/92% RH and 40°C/75% RH, sealed container at 60°C, 13 days; XRPD, HPLC, colour); assay type: physicochemical; conditions: initial, before storage; listed as Crystalline form G
# Experimental: Placed in a open container at 25°C/92% RH and 40°C/75% RH for 13 days, respectively, or in a sealed container at 60°C for 13 days. […]
# (§1) Placed in a open container at 25 °C/92% RH and 40 °C/75% RH for 13 days, respectively, or in a sealed container at 60 °C for 13 days. […]
# as §1
# [4] = Hygroscopicity test by DVS, with XRPD after DVS; assay type: physicochemical; conditions: 25 °C, listed as Crystalline form G
# Experimental: • DVS Intrinsic Dynamic Vapor Sorption Instrument • Gas flow rate 200 sccm, furnace temperature 25 °C.
# The hygroscopicity and dehydration behavior of crystalline form B was investigated by DVS. Humidity program: 25 °C, 40-0-95-0-40% RH, dm/dt 0.002, shortest equilibrium time was 60 min, and longest equilibrium time was 360 min. XRPD was also performed on the samples after DVS test to determine whether the crystal transformation occurred.
# The hygroscopicity and dehydration behavior of crystalline form E was investigated by DVS. Humidity program: 25 °C, 40-0-95-0-40% RH, dm/dt 0.002, shortest equilibrium time was 60 min, and longest equilibrium time was 360 min. XRPD was also performed on the samples after DVS test to determine whether the crystal transformation occurred.
# The hygroscopicity and dehydration behavior of crystalline form G was investigated by DVS. Humidity program: 25 °C, 40-0-95-0-40% RH, dm/dt 0.002, shortest equilibrium time was 60 min, and longest equilibrium time was 360 min. XRPD was also performed on the samples after DVS test to determine whether the crystal transformation occurred.
# [5] = Stability test of crystalline forms (open container at 25°C/92% RH and 40°C/75% RH, sealed container at 60°C, 13 days; XRPD, HPLC, colour); assay type: physicochemical; conditions: Solid, 1 week, listed as Crystalline form G; for Chemical purity / Chiral purity: HPLC/SFC
compound,measurement,setting,value
"O=C1CC[C@H](N2Cc3cc(C(=O)N[C@H](c4ccc(Cl)cn4)C4CCC4)ccc3C2=O)C(=O)N1 [crystalline form G, N-((S)-(5-chloropyridin-2-yl)(cyclobutyl)methyl)-2-((S)-2,6-dioxopiperidin-3-yl)-1-oxoisoindoline-5-carboxamide]",AUClast /D,[1]; dose-normalised,306 ± 35
same,AUC(0-inf),"[1]; mouse, plasma",10700 ± 2100 ng·h/mL
same,AUC(0-t),"[1]; mouse, plasma",9170 ± 1050 ng·h/mL
same,Cmax,"[1]; mouse, plasma",1370 ± 365 ng/mL
same,Tmax,"[1]; mouse, plasma",0.42 h
same,half-life,"[1]; mouse, plasma",8.7 h
same,Notes (change of crystallinity),[2]; pressed at 2 MPa for 5 min,No significant change in crystallinity
same,XRPD,[2]; pressed at 2 MPa for 5 min,"Crystalline form G, see Figure 21a"
same,Notes (change of crystallinity),[2]; pressed at 5 MPa for 5 min,No significant change in crystallinity
same,XRPD,[2]; pressed at 5 MPa for 5 min,"Crystalline form G, see Figure 21a"
same,Notes (change of crystallinity),[2]; pressed at 10 MPa for 5 min,No significant change in crystallinity
same,XRPD,[2]; pressed at 10 MPa for 5 min,"Crystalline form G, see Figure 21a"
same,change in crystallinity,"[2]; tableted at 2 MPa, 5 MPa and 10 MPa pressures",no significant change in crystallinity was observed
same,Initial purity (HPLC/SFC) Chemical purity,[3],99.7%
same,Initial purity (HPLC/SFC) Chiral purity,[3],97.6%
same,1st adsorption weight change percentage,[4]; relative humidity 0%,0.0%
same,1st desorption weight change percentage,[4]; relative humidity 0%,0.0%
same,1st adsorption weight change percentage,[4]; relative humidity 10%,0.0%
same,1st desorption weight change percentage,[4]; relative humidity 10%,0.1%
same,2nd adsorption weight change percentage,[4]; relative humidity 10%,0.0%
same,2nd desorption weight change percentage,[4]; relative humidity 10%,0.1%
same,1st adsorption weight change percentage,[4]; relative humidity 20%,0.0%
same,1st desorption weight change percentage,[4]; relative humidity 20%,0.1%
same,2nd adsorption weight change percentage,[4]; relative humidity 20%,0.0%
same,2nd desorption weight change percentage,[4]; relative humidity 20%,0.1%
same,1st adsorption weight change percentage,[4]; relative humidity 30%,0.1%
same,1st desorption weight change percentage,[4]; relative humidity 30%,0.2%
same,2nd adsorption weight change percentage,[4]; relative humidity 30%,0.1%
same,2nd desorption weight change percentage,[4]; relative humidity 30%,0.2%
same,1st adsorption weight change percentage,[4]; relative humidity 40%,0.1%
same,1st desorption weight change percentage,[4]; relative humidity 40%,0.3%
same,2nd adsorption weight change percentage,[4]; relative humidity 40%,0.1%
same,2nd desorption weight change percentage,[4]; relative humidity 40%,0.3%
same,1st adsorption weight change percentage,[4]; relative humidity 50%,0.2%
same,2nd desorption weight change percentage,[4]; relative humidity 50%,0.3%
same,1st adsorption weight change percentage,[4]; relative humidity 60%,0.2%
same,2nd desorption weight change percentage,[4]; relative humidity 60%,0.4%
same,1st adsorption weight change percentage,[4]; relative humidity 70%,0.3%
same,2nd desorption weight change percentage,[4]; relative humidity 70%,0.4%
same,1st adsorption weight change percentage,[4]; relative humidity 80%,0.3%
same,2nd desorption weight change percentage,[4]; relative humidity 80%,0.5%
same,1st adsorption weight change percentage,[4]; relative humidity 90%,0.5%
same,2nd desorption weight change percentage,[4]; relative humidity 90%,0.5%
same,1st adsorption weight change percentage,[4]; relative humidity 95%,0.7%
same,2nd desorption weight change percentage,[4]; relative humidity 95%,0.7%
same,XRPD after DVS test,[4]; after 40-0-95-0-40% RH,"The crystal form did not change, see Figure 20b"
same,moisture adsorbed (DVS),[4]; under 40%RH-95%RH,"0.6% of moisture was adsorbed under 40%RH-95%RH, see Figure 20a"
same,Chemical purity,"[5]; 25 °C/92% RH, open container",99.4%
same,Chiral purity,"[5]; 25 °C/92% RH, open container",97.8%
same,Solid (XRPD),"[5]; 25 °C/92% RH, open container","The crystal form did not change, see Figure 17c"
same,Chemical purity,"[5]; 40 °C/75% RH, open container",99.5%
same,Chiral purity,"[5]; 40 °C/75% RH, open container",97.8%
same,Solid (XRPD),"[5]; 40 °C/75% RH, open container","The crystal form did not change, see Figure 17c"
same,Chemical purity,"[5]; 60 °C, sealed container",99.5%
same,Chiral purity,"[5]; 60 °C, sealed container",97.7%
same,Solid (XRPD),"[5]; 60 °C, sealed container","The crystal form did not change, see Figure 17c"

# Reference: patent EP4631937A1, “CRYSTALLINE FORM OR AMORPHOUS FORM OF OXOISOINDOLE-5-FORMAMIDE COMPOUND OR SALT AND SOLVATE THEREOF” (Hangzhou Glubio Pharmaceutical Co., Ltd., priority 2022, dated 2024)
